Test [1] relates to LNCaP cells grown orthotopically in the prostates of nude mice. Description: LNCaP cells grown orthotopically in the prostates of nude mice (PSA, tumor volume). As to conditions: 0-30 mg/kg intraperitoneal injections and concomitant irradiation; dose-dependent effect. The test is classed as in vivo. The protocol: FIG. 2. Depicts the in vivo effects of 1-O-octadecyl-2-O-methyl-glycero-3-phosphocholine (30 mg/kg body weight/day administered intraperitoneally for 15 days; FIG. 2A), (ionizing) radiation (absorbed dose of 5 Gray units administered on day 7); FIG. 2C), and a combination thereof (FIG. 2B) on LNCaP cells grown orthotopically in the prostates of nude mice (seven mice/group). Tumor growth was assessed via determining the serum level of the prostate-specific antigen (PSA) using a commercially available test kit as well as the tumor volume by means of magnetic resonance imaging. Graphed lines show tumor size in individual mice.
It is known that prostate cancer cell lines express FAS receptor, that some of them are not sensitive to FAS (O. W. Rokhlin et al., Cancer Res. 1997, 57: 1758-68). […]
1-O-octadecyl-2-O-methyl-glycero-3-phosphocholine was administered intraperitoneally in a dose of 30 mg/kg body weight/day administered intraperitoneally for 15 days (FIG. 2A; studies using different routes of administration such as orally or by gavage are currently under way). […] Tumor growth was assessed via determining the serum level of the prostate-specific antigen (PSA) using a commercially available test kit as well as the tumor volume by means of magnetic resonance imaging.

The subject of test [2] is androgen-insensitive LNCaP-Res cells. The experiment in a line: apoptosis in LNCaP-Res cells. The test is classed as cell-based, human. As to conditions: data not shown.
Another test concerns HeLa. As to conditions: mean ± SD from three independent experiments, read-out: ED50 values for induction of apoptosis; cited from earlier work.
For another test, the system named is A549 (FAS negative). The experiment in a line: WST-1 proliferation assay, A549. The test is classed as cell-based, human. As to conditions: single agent, per experiment line. The protocol: 2000 cells were plated in each well of 96-well flat bottom plates, and incubated overnight at 37 °C in 5% CO2. The growth of plated cells was measured by adding […] of WST-1 reagent (Roche Applied Sciences, Germany) to 3 control wells and measuring the absorbance at 650 nm and at 450 nm, respectively, with a SpectraMax250 plate reader. […] After this incubation, VVST-1 reagent was added to the wells and OD650-OD450 values were calculated as before. six wells were assayed for each conditions and standard deviation was determined: all experiments were performed at least three times independently. […] DDP and GMZ were both purchased from Sigma-aldrich Corp., St. Louis, Mo., USA. The following cell lines were used: A549 (FAS negative), NCI-H460 (FAS positive), and HCC827 (FAS positive), all obtained from the ATTC, Rockville, Md., USA.
In general terms: Tetrazolium dyes change colour on reduction, which living cells bring about.

Another test deals with LN-229. The experiment in a line: WST-1 proliferation assay, LN-229. The test is classed as cell-based. Particulars: Homo sapiens. The procedure: 2000 cells were plated in each well of 96-well flat bottom plates, and incubated overnight at 37 °C in 5% CO2. The growth of plated cells was measured by adding […] of WST-1 reagent (Roche Applied Sciences, Germany) to 3 control wells and measuring the absorbance at 650 nm and at 450 nm, respectively, with a SpectraMax250 plate reader. If the OD650-OD450 values were above 0.5, the remainder of the plate was used for incubation with AP-121, other pharmacological agents or solvent control for 96 hours.
After this incubation, VVST-1 reagent was added to the wells and OD650-OD450 values were calculated as before. six wells were assayed for each conditions and standard deviation was determined: all experiments were performed at least three times independently. After elucidation of individual IC50 values for each compound, the simultaneous combination treatment of AP-121 and the chemotherapeutic agent at their IC50 ratio was performed; combination index (CI) was determined by Calcusyn software package (Biosoft, Ferguson, Mo.). Data were evaluated by calculating the means of the combination index (CI), where a CI of <0.3 indicates a strong synergistic effect, 0.3<CI<0.7 a synergistic effect, 0.7<CI<0.9 moderate synergy, 0.9<CI<1 additive effect and CI>1 antagonistic effect, respectively.
For the AP-121 cell proliferation drug combination measurements, the ED50 was determined for each drug. Six different concentrations of each drug were used in combinations index measurements and compared to +/− cells, and compared to controls without compound. Each combination was repeated 6 times at 2 different time points (24 and 96 hours), each of the above experiments was repeated 3 times to obtain valid results.

Another test deals with U87MG. The experiment in a line: WST-1 proliferation assay, U87MG. The test is classed as cell-based, human. The protocol:
AP-121 was prepared as 5 mM stock solution in distilled sterile water, Temozolomide (TMZ) (Haorui Pharma-Chem, Inc., Edison, N.J.) was prepared as 100 mM in sterile filtrated DMSO; Adriamycin (ADR) (Sigma) was prepared as 1 mM in distilled sterile water; Camptothecin (CTP) (Sigma) was prepared as 10 mM solution in 0.1 N NaOH; Tarceva (Proteinkinase, Germany) was prepared as 5 mM solution in sterile DMSO. All compound stocks were kept at −20° C. 2000 cells were plated in each well of 96-well flat bottom plates, and incubated overnight at 37 °C in 5% CO2. The growth of plated cells was measured by adding […] of WST-1 reagent (Roche Applied Sciences, Germany) to 3 control wells and measuring the absorbance at 650 nm and at 450 nm, respectively, with a SpectraMax250 plate reader. […] After this incubation, VVST-1 reagent was added to the wells and OD650-OD450 values were calculated as before. six wells were assayed for each conditions and standard deviation was determined: all experiments were performed at least three times independently. […] Six different concentrations of each drug were used in combinations index measurements and compared to +/− cells, and compared to controls without compound.

Test [3] concerns androgen-insensitive LNCaP C4-2. Description: apoptosis in LNCaP C4-2 cells. Particulars: data not shown. The test is classed as cell-based, human.
The test system of the next test is A431. As to conditions: mean ± SD from three independent experiments, read-out: ED50 values for induction of apoptosis; cited from earlier work.

The structures appear in SMILES notation. Values joined by “and” are separate entries in the source; they are usually repeats but may differ in a detail not shown here. Equal entries are not always repeated.

In general, IC50 refers to the point on the concentration scale where inhibition reaches its midpoint.

Regarding `CCCCCCCCCCCCCCCCCCOCC(COP(=O)([O-])OCC[N+](C)(C)C)OC` (racemic) [AP-121, 1-O-octadecyl-2-O-methyl-glycero-3-phosphocholine], the “PSA (prostate specific antigen) levels” value in test [1] was “reduced after few days of treatment”. The tumor size result in test [1] was “shrinkage of the tumor size after one week of treatment”. The “apoptosis in CHEM+RT treated cells” value in test [2] and in test [3] was “enhancement of apoptosis” throughout. Further, the EC50 in the test with HeLa is 5.17 ± 1.6 µM; in the test with U87MG (Homo sapiens, U-87 MG, single agent or compound mixture as labelled (arrays A2, A1), read-out: ED50 (the source's name)) it was 6.8 µM; in the test on A431, 15.5 ± 2.9 µM. Moreover, the IC50 with A549 (FAS negative) (A549) is 6 µM and 6.9 µM; in the test on A549 (FAS negative) (Homo sapiens, A549, A549), 8 µM; in the test with LN-229, 4.3 µM; with U87MG (Homo sapiens, U-87 MG), 8.5 µM. Moreover, in the test on U87MG (ratio to the largest value), the normalized ED50 (arrays B2, B1) stood at 1.

The values above are taken from US8324188B2, “Combinations of ET-18-O-CH3and anti-cancer agents for the treatment of cancer” (priority 2006, dated 2012).
